In US20250059232A1, “PENTAPEPTIDE AND USE THEREOF” (ENSOL BIOSCIENCES INC., priority 2021, published 2025):

Legend:
PC3 = PC3 cell viability (CCK-8) in NK92 co-culture with anti-PD-L1; format: cell-based, human; conditions: 300 uM with 10 ug/ml anti-PD-L1, 24/48/72 hours of co-culturing
Protocol: The experiment described below was performed to evaluate the tumor cell proliferation inhibitory effect of the combination treatment of the peptide of Example 1 and the anti-PD-L1, which is an immune checkpoint inhibitor. First, 5×10^3 cells of a human prostate cancer cell line PC3, 5×10^3 cells of a human lung cancer cell line A549 (Korean Cell Line Bank), and 1×10^4 cells of a human triple negative breast cancer cell line MDA-MB-231 (ATCC) were seeded in 96 wells and stabilized by culturing overnight. Then, the seeded cells were treated with 10 ug/ml of the anti-PD-L1 and 300 uM of the peptide of Example 1, for each condition while NK92 cells for 5×10^3 cells of each of the PC3 cell line and the MDA-MB-231 cell line and 2.5×10^3 cells of the A549 cell line were additionally seeded. After 24/48/72 hours of co-culturing (for PC3 and MDA-MB-231) and 24/48 hours of co-culturing (for A549), the NK92 cells were removed by washing, and the cancer cell viability was measured by CCK-8 addition. FIG. 15 is a graph illustrating the changes in PC3 cell viability over culturing time for each test group in an anticancer effect evaluation test. In FIG. 15, the x-axis represents culturing time and the y-axis represents cell viability (%). FIG. 16 is a graph illustrating the changes in A549 cell viability over culturing time for each test group in an anticancer effect evaluation test. […]

MDA-MB-231 [1] = experiment: MDA-MB-231 fat pad xenograft in athymic nude mouse: tumor volume and weight; format: in vivo, human
Protocol: 5×10^6 cells/head of the human triple negative breast cancer cell line MDA-MB-231 (American Type Culture Collection (ATCC)) were mixed with Matrigel and PBS (1:1). 100 ul of the mixture was injected into the right third fat pad of 7-week-old female athymic nude mouse. After the transplantation, drug administration started from an average tumor size of 80 mm^3. Paclitaxel 20 mg/kg was administered on Day 0 and on Day 1. That is, the paclitaxel 20 mg/kg was administered a total of two times. Then, the peptide of Example 1 was administered in a dose of 100 mg/kg on Day 2, Day 4, and Day 6. That is, the peptide of Example 1 was administered a total of three times. Tumor volumes were measured 3 times a week for 3 weeks after administration of the first dose. Tumor weights were measured by necropsy after the end of the experiment. For each group, ten mice were used.
Tumor volume changes over time for each group are shown in FIG. 8, and tumor weight on the eighteenth day after the administration of the first dose for each group is shown in FIG. 9. FIG. 8 is a graph illustrating the changes in tumor volume over time after sample administration in animal experimentation. In FIG. 8, the x-axis represents the number of days elapsed after the start of administration and the y-axis represents the tumor volume change (mm^3). FIG. 9 is a graph illustrating a tumor weight for each test group in animal experimentation. In FIG. 9, the x-axis represents test groups and the y-axis represents tumor weights (mg).

MDA-MB-231 [2] = experiment: MDA-MB-231 xenograft in BalB/c nude mouse: survival rate; format: in vivo; conditions: 100 mg/kg subcutaneously 3 times weekly, co-administered with paclitaxel 20 mg/kg once weekly
Protocol: To investigate survival rates of the paclitaxel-only administration group and the group co-administered with paclitaxel and the peptide of Example 1, experiments described below were performed. 5×10^6 cells/head of the human triple negative breast cancer cell line MDA-MB-231 were mixed with Matrigel and PBS (1:1). 100 ul of the mixture was injected into the right third fat pad of 7-week-old female BalB/c nude mouse. After the transplantation, drug administration started from an average tumor size of 70 mm^3. Paclitaxel 20 mg/kg was administered once weekly, and the peptide 100 mg/kg of Example 1 was administered subcutaneously 3 times weekly at 48-hour intervals, 48 hours after the paclitaxel administration. Each test group was administered for 12 weeks and animal survival was observed daily. FIG. 10 is a graph illustrating survival rates over time after sample administration in animal experimentation. In FIG. 10, the x-axis represents the elapsed time (days) after administration and the y-axis represents survival rates (%). […] In the case of the group co-administered with the peptide of Example 1, the first deceased mouse occurred on Day 60 of administration.

4T1 cells = experiment: Syngeneic model implanted with paclitaxel-resistant 4T1 cells: tumor volume, Western blot of cleaved PARP and LC3II; format: in vivo, mouse; conditions: for Reduction in tumor volume compared to the group administered with only paclitaxel: Balb/c mice, 3 weeks; for Increase in cleaved PARP expression level in tumor compared to paclitaxel-only group / Reduction in LC3II expression level in tumor compared to paclitaxel-only group: Western blot after 3-week administration
Protocol: Cell death and autophagy marker changes were determined by the Western blot method, using a syngeneic model implanted with 4T1 cells (American Type Culture Collection (ATCC)), which are mouse triple negative breast cancer tumor cells resistant to paclitaxel. The drug administration was started, when the tumor volume was reached to 70 mm^3 after a fat pad of Balb/c mice (6 weeks old, female) was transplanted with 4T1 cells in a concentration of 1×10^6 cells/head. For Week 1, paclitaxel 20 mg/kg was administered on Day 1 and Day 2, and the peptide (10, 100 mg/kg) of Example 1 was co-administered on Day 3, Day 5, and Day 7. In addition, the same process was performed for each of Week 2, and Week 3 (n=3). The tumor volumes were measured daily because the tumors grew very quickly. The changes in cleaved PARP, which is a cell death marker, and the changes in LC3II, which is an autophagy marker, in tumors were analyzed after necropsy on the day after the end of the 3-week administration, by a Western blot test.
FIG. 5 is a graph illustrating the results of tumor volume measurements according to the number of days after treatment in animal experimentation. In FIG. 5, the x-axis represents the number of days elapsed after treatment and the y-axis represents the tumor volume change (mm^3).
In addition, the changes in cleaved PARP, which is a cell death marker, are shown in FIG. 6, and the changes in LC3II, which is an autophagy marker, are shown in FIG. 7. FIG. 6 is a graph showing the changes in expression of cleaved PARP, which is a cell death marker, for each treatment group in animal experimentation, and FIG. 7 is a graph showing the changes in expression of LC3II, which is an autophagy marker, for each treatment group in animal experimentation.

[3] = 100 mg/kg co-administered with paclitaxel, eighteenth day after first dose
[4] = 10 mg/kg co-administered with paclitaxel
[5] = 100 mg/kg co-administered with paclitaxel, p<0.05

Substance: Ac-QLHLD-OH [Example 1, acetyl-QLHLD]
- Cancer cell viability compared to the group treated with only anti-PD-L1 (PC3): significant decrease in cancer cell viability
- CR (mice in which the tumor disappeared) (MDA-MB-231 [1]; 100 mg/kg Day 2, 4, 6 after paclitaxel 20 mg/kg Day 0 and 1, ten mice): 20%
- Reduction in tumor volume compared to control group (MDA-MB-231 [1]; [3]): 48%
- Reduction in tumor weight compared to control group (MDA-MB-231 [1]; [3]): 51%
- Day on which the tumor disappeared (MDA-MB-231 [1]; co-administered with paclitaxel, two mice): 14 days
- Duration of the efficacy of a single-cycle drug treatment (MDA-MB-231 [1]; combination administration with paclitaxel): ≤ 2 weeks
- Day of administration on which the first deceased mouse occurred (MDA-MB-231 [2]): 60 days
- Reduction in tumor volume compared to the group administered with only paclitaxel (4T1 cells; 10 mg/kg co-administered with paclitaxel 20 mg/kg): 20%
- Increase in cleaved PARP expression level in tumor compared to paclitaxel-only group (4T1 cells; [4]): 2 fold
- Reduction in LC3II expression level in tumor compared to paclitaxel-only group (4T1 cells; [4]): 38%
- Reduction in tumor volume compared to the group administered with only paclitaxel (4T1 cells; 100 mg/kg co-administered with paclitaxel 20 mg/kg): 40%
- Increase in cleaved PARP expression level in tumor compared to paclitaxel-only group (4T1 cells; [5]): 3 fold
- Reduction in LC3II expression level in tumor compared to paclitaxel-only group (4T1 cells; [5]): 86%
